Measurements taken from PubChem BioAssay (NCI).
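Exposure lasted 48 hours, with cells grown in 96-well plates and compounds tested at five concentrations. GI50 is the concentration that inhibits growth by half. TGI marks complete inhibition of growth.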

Key:
Test in all cases: NCI-60 cell line screen, 48 h
[1] = tested on: HL-60(TB) leukemia
[2] = tested on: SF-295 CNS
[3] = tested on: UO-31 renal
[4] = tested on: SK-MEL-2 melanoma
[5] = tested on: OVCAR-8 ovarian
[6] = tested on: NCI/ADR-RES ovarian
[7] = tested on: SF-268 CNS
[8] = tested on: LOX IMVI melanoma
[9] = tested on: IGROV1 ovarian
[10] = tested on: M14 melanoma

SMILES | GI50 [1] [µM] | TGI [1] [µM] | GI50 [2] [µM] | TGI [2] [µM] | GI50 [3] [µM] | TGI [3] [µM] | GI50 [4] [µM] | TGI [4] [µM] | GI50 [5] [µM] | TGI [5] [µM] | GI50 [6] [µM] | TGI [6] [µM] | GI50 [7] [µM] | TGI [7] [µM] | GI50 [8] [µM] | TGI [8] [µM] | GI50 [9] [µM] | TGI [9] [µM] | GI50 [10] [µM] | TGI [10] [µM]
O=C1NC(=O)C(c2ccccc2Cl)=C1Nc1cccc(O)c1 | 4.93 | > 25 | 8.32 | > 25 | 7.24 | > 25 | 1.99 | > 25 | 24.6 | > 25 | 3.2 | > 25 | 12.5 | > 25 | 15.1 | > 25 | > 25 | > 25 | > 25 | > 25
CC1=CC[C@@H]2C(C)(C)[C@@H](O)CC[C@@]2(C)[C@@H]1COc1ccc2ccc(=O)oc2c1 | 3.27 | 14 | 10.8 | 23.1 | 2.99 | 13.1 | 5.49 | 21.9 | 3.77 | 17.2 | 3.22 | 12.7 | 6.5 | 26.3 | 4.77 | 19 | 6.03 | 22 | 7.2 | 21.3
Cc1ccc(S(=O)(=O)NCCN2c3nc4ccccc4cc3Sc3cc4ccccc4nc32)cc1 | > 100 | > 100 | 4.04 | 18.5 | > 100 | > 100 | > 37.4 | > 80.2 | 6.01 | > 100 | > 25.1 | > 100 | 11.4 | > 100 | > 81.7 | > 100 | 7.06 | > 100 | > 100 | > 100
Cc1cc(O)cc(C)c1/C=C/c1cncc(C(=O)N(C)C)c1 | > 25 | > 25 | > 14.8 | > 25 | > 25 | > 25 | > 25 | > 25 | > 25 | > 25 | > 25 | > 25 | > 25 | > 25 | > 25 | > 25 | > 25 | > 25 | > 25 | > 25
CC1(C)C(=O)/C(=C\c2ccco2)C[C@]2(C)[C@H]3CC=C4[C@@H]5C[C@](C)(C(=O)O)CC[C@]5(C)CC[C@@]4(C)[C@]3(C)CC[C@@H]12 | 6.78 | 27.2 | 7.06 | 24.6 | 5.01 | 19.9 | 15.1 | 36.8 | 6 | 42.4 | 10 | 29.2 | 12.1 | 28.2 | 9.56 | 22.2 | 8.56 | 28.3 | 13.3 | 35.1
Nc1ncnc2c1ncn2C1OC(C(=O)O)C(O)C1O (stereo not given) |  | > 100 |  | > 100 |  | > 100 |  | > 100 |  | > 100 |  | > 100 |  | > 100 |  | > 100 |  | > 100 |  | > 100
NC(=O)c1ccccc1NC(=O)C(=O)C(c1cnc2ccc([N+](=O)[O-])cc2n1)[N+](=O)[O-] (stereo not given) |  | > 100 |  | > 100 |  | > 100 |  | > 100 |  | > 100 |  | > 100 |  | > 100 |  | > 100 |  | > 100 |  | > 100
OCC1OC(N2C=C(c3nc4ccccc4s3)C3C=CC=CC32)C(O)C1O (stereo not given) | 21 | > 50 | 13.1 | 43.6 | 17.7 | > 50 | 29.7 | > 50 | 11.4 | 29.5 | 12.2 | 36.9 | 8.11 | > 50 | 7.1 | 18 | 14.8 | > 50 | 9.6 | 22.4
CCC(=O)N1C/C(=C/c2ccc(OC)cc2)C(=O)/C(=C/c2ccc(OC)cc2)C1 | 2.98 | 53.1 |  |  | 1.34 | 2.71 | 2.53 | 5.38 | 2.86 | > 100 | 3.54 | > 100 | 2.31 | 5.71 | 0.95 | 2.28 | 2.21 | 4.93 | 1.92 | 3.96
Cc1ccc(-c2cc3nc(-c4ccccc4)nc(C(Cl)Cl)n3n2)cc1 | 1.39 | 4.06 | 0.955 | 1.95 | 0.719 | 1.41 | 2.51 | 19.7 | 1.16 | 4.74 | 0.789 | 2.42 | 1.11 | 3.53 | > 50 | > 50 | 1.43 | > 50 | > 50 | > 50
O=C(N/N=C/c1ccc(F)cc1)c1[nH]c2ccc(I)cc2c1-c1ccccc1 | 0.259 | 0.824 | 0.27 | 1.5 | 1.98 | 52.6 | 10.9 | > 100 | 0.971 | > 51.2 | 0.274 | 0.769 | 0.772 | > 80.7 | 0.767 | > 100 | 0.45 | 32.5 | 0.372 | 7.85
CCCCc1cc(O)ccc1O | 2.56 | 6.77 | 42.7 | > 100 | 10.8 | 28.1 | 35.8 | > 100 | 28.2 | > 100 | 23.2 | > 100 | 15.5 | > 100 | 14.6 | 63.6 | 32.3 | > 100 |  | 
N#C/C(=C(\O)C(=O)O)c1ccc(-c2cccc3ccccc23)cc1 |  | 81.9 |  | > 100 |  | > 100 |  | > 100 |  | > 100 |  | > 100 |  | > 100 |  | > 100 |  | > 100 |  | > 100
O=S(=O)(O)c1ccc2cc(N=Nc3cc(S(=O)(=O)O)c4cccnc4c3O)ccc2c1 |  | 4.97 |  | > 100 |  | > 100 |  | > 100 |  | > 100 |  | > 100 |  | > 100 |  | > 100 |  | > 100 |  | > 100
COC(=O)c1ccc2c(c1)c1c(C)c3cnccc3c(C)c1n2C | 0.243 | 1.05 | 0.0652 | 0.558 | 0.0369 | 0.821 | 0.107 | 0.471 | 0.0595 | 3.79 | 0.0498 | 0.636 | 0.0618 | 3.06 | 0.0391 | 0.194 | 0.0323 | 0.569 | 0.0622 | 0.241
CCN(CC)CC(C)Nc1ccc(C)c2sc3ccccc3c(=O)c12 (stereo not given) | 1.62 | 5.24 | 2.66 | 8.56 | 1.77 | 7.69 | 9.07 | 25.5 | 6.86 | 25.3 | 5.56 | 18.7 | 6.24 | 18.4 | 1.52 | 3.99 | 3.9 | 17.1 | 1.62 | 3.2
CCOC(=O)/C=C/c1ccc(C(=O)OCC)[nH]1 | 1.62 | 9.89 | 3.5 | 41.2 | 4 | > 100 |  |  | 5.82 | > 100 | 3.3 | > 100 | 6.65 | > 100 | 5.29 | > 100 | 4.84 | > 100 | 2.82 | > 100
CN(C)CCNC(=O)c1cccc(CO)c1[N+](=O)[O-] |  | > 100 |  | > 100 |  | > 100 |  | > 100 |  | > 100 |  | > 100 |  | > 100 |  |  |  | > 100 |  | > 100
CN(C)CCNc1cccc2sc3ccc(O)cc3c(=O)c12 | 1.53 | 3.74 | 6.53 | 22.3 | 1.16 | 3.58 |  |  | 2.16 | 9.78 | 3.14 | 12.7 | 3.18 | 14.6 |  |  | 3.13 | 12.5 | 1.85 | 4.33
O=C1OCC2=Nc3cccc4cccc(c34)N12 |  | > 100 |  | > 100 |  | > 100 |  |  |  | > 100 |  | > 100 |  | > 100 |  | > 100 |  | > 100 |  | > 100
OC1CCC(C2C3CCCCC3C3CCCCC3C2C2CCC(O)CC2)CC1 (stereo not given) |  | 62.2 |  | 27.3 |  | 36.5 |  | 25.3 |  | 20.4 |  | > 100 |  | 14.5 |  |  |  | 12.8 |  | > 100
COC1C(=O)CCC2(CO2)C1(O)C1(C)OC1CCC(C)C (stereo not given) |  | > 100 |  | > 100 |  | > 100 |  |  |  | > 100 |  | > 100 |  | > 100 |  |  |  | > 100 |  | > 100
